Our source for the IC50 values is PubChem BioAssay AID2305 (GlaxoSmithKline (GSK), 2010).

A word on the IC50: it is the concentration at which inhibition is half-maximal.

This assay has as its system P. falciparum 3D7 growth, pLDH absorbance. Nature of the assay: P. falciparum 3D7 growth inhibition, dose response, strain 3D7 (AID 2305).

With `COc1ccc(NC(=O)NC2CCN(CCCOc3ccnc4cc(Cl)ccc34)C2)cc1OC` (stereo unspecified), the IC50 was 790 nM.
In turn, `CN(C)c1cccc(NC(=O)NC2N=C(c3ccccc3)c3ccccc3N(CC(=O)N(C)c3ccccc3)C2=O)c1` (stereo unspecified) gave an IC50 of 950 nM.
The value for `CN1CCCN(Cc2ccc(-c3cccc(NC(=O)c4ccc(Cl)cc4)c3)cc2)CC1` was 610 nM; that for `COc1ccc(C=NNc2cc(C)nc3ccc(C)cc23)c2ccccc12` was 860 nM.
The value for `O=C(c1ccc(-c2cccc(-c3nc4ccc(F)cc4[nH]3)c2)cc1)N1CCCCC1CN1CCC(O)C1` (stereo unspecified) was 1400 nM; that for `O=C1COC2(CN1C1CCN(Cc3ccc(O)cc3Cl)C1)c1ccccc1-c1ccccc12` (stereo unspecified) was 1330 nM.
The value for `O=C(NC1CCC(N2CCC(Cc3ccc(F)cc3)CC2)CC1)c1cc2ccccc2[nH]1` (stereo unspecified) was 870 nM; that for `C=CCn1c(Cc2ccccc2)nnc1Sc1ccc(C#N)c([N+](=O)[O-])c1` was 1030 nM.
The molecule `c1cc(CNCc2ccc3c(c2)OCO3)cc(-c2cccc(CNc3ccc4ncccc4c3)c2)c1` displayed an IC50 of 760 nM. The IC50 values of the last two molecules are within 1.5-fold of each other.
As for `C=CCOc1ccc2ccccc2c1CNCCCCCCNCc1c(OCC=C)ccc2ccccc12`, the IC50 was found to be 860 nM.
The value for `CCn1c(-c2nonc2N)nc2c(-c3cccc(NC(=O)Nc4ccc(C#N)cc4)c3)ncc(OCCCN)c21` was 1510 nM; that for `O=C(Nc1ccc(Cl)c(Cl)c1)N1CCc2ccc(OCCCN3CCCCC3)cc2CC1` was 1520 nM.
Then `Nc1cc(-c2ccc3c(N)nccc3c2)ccc1Cl`, with 1540 nM.
Then `CN(C)c1ccc(-c2nc3ccc(N)cc3[nH]2)cc1`, with 240 nM; and `O=C(Nc1ccc(OC2CCN(Cc3ccco3)CC2)c(Cl)c1)c1ccc2ncccc2c1`, with 950 nM; and `COc1ccc2nccc([C@@H](O)CN3CCC(NCc4cc5cc(Cl)ccc5[nH]4)CC3)c2c1`, with 130 nM.
`O=C(/C=C/c1ccc(Cl)c(Cl)c1)NCCCCCN1CCC(NC(=O)NC2CCCC2)CC1`: the IC50 amounted to 630 nM. This IC50 is about 4.8-fold higher than that of the molecule before.
The value for `O=[N+]([O-])c1cccc(CNC2CCN(Cc3ccc(C(F)(F)F)cc3)CC2)c1` was 740 nM.
The value for `COC(=O)CCCCCOc1cc(Cc2cnc(N)nc2N)cc(OC)c1OC` was 180 nM.
With `COc1ccc(C(=O)N[C@@H](CC(C)C)C(=O)NC2CC[C@@H](C)N(C(=O)Nc3ccc(Cl)cc3)CC2=O)cc1OCCN1CCOCC1` (stereo partly specified), the IC50 turned out to be 150 nM.
Then `Cc1[nH]c(C)c(-c2ccc(C(F)(F)F)cc2)c(=O)c1Br`, with 140 nM; and `CCNC(=O)c1ccc2c(c1)c(C)c(C)n2Cc1ccc(F)cc1`, with 770 nM; and `C=CCc1cc(Cc2cnc(N)nc2N)c2ccc(C)nc2c1OC`, with 690 nM.
Then `O=c1cc(NCCCNCc2cccc3c2OC(F)(F)O3)[nH]c2ccccc12`, with 950 nM; and `Cc1cc(N[C@@H](Cc2ccccc2)C(=O)NCCCOC(C)C)nc(NCC2CCCCC2)n1`, with 880 nM; and `CC(Cc1ccc(SC(C)C)cc1)NCC(O)c1cccc(Cl)c1` (stereo unspecified), with 830 nM.
Take `COc1ccc(O)c(Cc2cnc3nc(N)nc(N)c3c2C)c1`: the IC50 was found to be 40 nM. Against the preceding molecule, the IC50 is about 21-fold lower.
Then `Cc1cc(N(C)C2CCN(CC3CCCCC3)C2)nc(Nc2ccc(Cl)cc2)n1` (stereo unspecified), with 680 nM.
Then `O=C(Nc1ccc(Br)c(C(F)(F)F)c1)c1cccc([N+](=O)[O-])c1`, with 910 nM; and `CCCNCc1ccc(-c2ccc(CN(Cc3cnc(C)cn3)C(=O)c3nn(-c4ccccc4)nc3C)cc2)nc1`, with 420 nM.
Then `CCC(C)c1ccc(NC(=O)Nc2ccc(Cn3ncc(N4CCCNCC4)c(Cl)c3=O)cc2)cc1` (stereo unspecified), with 1030 nM.
`CCCC(C)Nc1nc(C)cc(N[C@@H](Cc2ccccc2)C(=O)NCCOc2ccccc2)n1` (stereo partly specified) registered an IC50 of 700 nM.
The value for `CCCc1cc(OC)c(C[C@H]2c3cc(O)c(Cl)cc3CCN2C)cc1OC` was 580 nM; that for `Cc1cc(C2CCN(CCCCNC(=O)c3ccc(NC(=O)c4ccc(Cl)cc4)cc3)CC2)c(C)cc1OCc1ccncc1` was 500 nM; that for `COc1ccc2c(c1)CC(CNC[C@H](O)c1cccc(Cl)c1)CC2` (stereo partly specified) was 990 nM.
The value for `CC(C)(C)n1nnnc1C(c1cccnc1)N(Cc1ccccc1)Cc1ccc(Cl)cc1` (stereo unspecified) was 740 nM; that for `COc1cc2nc(Nc3ccc4c(cnn4Cc4ccccc4)c3)nc(Nc3ccc4c(cnn4Cc4ccccc4)c3)c2cc1OC` was 190 nM; that for `COc1cccc(CCNc2nc(NCc3ccccc3)c3cc(OC)c(OC)cc3n2)c1` was 320 nM.
Then `CN(C)c1cccc2c1nc(-c1ccco1)n2CC1CCCN1` (stereo unspecified), with 970 nM; and `CCN1CCC(N(CCCCCCCCc2ccc(C(F)(F)F)cc2)C(=O)Cn2c(CCc3cccc(F)c3F)cc(=O)c3ccccc32)CC1`, with 1200 nM.
In the case of `O=S(=O)(NCCN1CCCC1)c1ccc(-c2cccc(CNCc3ccc(F)cc3)c2)cc1`, the IC50 is 730 nM.
In turn, `O=C(NC1CCCCC1)N(Cc1cccc(-c2ccc(CNC3CCCC3)cc2)c1)C1CCN(Cc2ccccc2)CC1` displayed an IC50 of 950 nM.
Then `Cc1[nH]nc2cc(Nc3ccnc(Nc4ccc(CN5CCOCC5)cc4)n3)ccc12`, with 950 nM; and `CN(C)Cc1ccc(-c2cccc(NC(=O)c3ccc(Cl)cc3)c2)cc1`, with 900 nM; and `Oc1ccc(CN2CC[C@@H](N3CCN(CCc4ccccc4)CC3)[C@H](O)C2)cc1Cl`, with 870 nM.
Then `CC(=O)Nc1ccc(OCCN(CC(C)C)c2ccc(C(F)(F)F)c(C#N)c2)c(Cl)c1`, with 310 nM; and `CCOc1ccccc1CNc1nccc(NCc2ccc(Cl)cc2Cl)n1`, with 1100 nM; and `CCn1c(-c2nc(-c3ccc4c(c3)OCO4)cnc2N)nc2cnccc21`, with 430 nM.
The value for `CCN(CC)C(=NCCCCCCN=C(NC(N)=NCc1ccc(Cl)cc1)N(CC)CC)NC(N)=NCc1ccc(Cl)cc1` was 230 nM; that for `COc1cc2c(cc1N1CCN(C)CC1)N(C(=O)Nc1ccc(-c3ccncc3)c(Cl)c1Cl)CC2` was 610 nM.
`CC(=O)NC1=NC(C)(C)N(OCCCOc2ccc(Cl)c(Cl)c2)C(NC(C)=O)=N1`: the IC50 was found to be 10 nM. This IC50 is about 61-fold lower than that of the molecule before.
The value for `CC[C@H](NC(=O)c1c(N)c(-c2sccc2Cl)nc2ccccc12)c1ccccc1` was 910 nM; that for `O=C(c1ccc(Cl)c(Cl)c1)N1CCc2c([nH]c3ccccc23)C1CN1CCCC1` (stereo unspecified) was 830 nM; that for `COc1cc(OC)cc(C(=O)N2CCOC(CCN3CCC(c4ccccc4)CC3)(c3ccc(Cl)c(Cl)c3)C2)c1` (stereo unspecified) was 440 nM.
Then `Cc1cc(C2CCN(CCCCNC(=O)c3ccc(NC(=O)c4ccc(Cl)cc4)cc3)CC2)c(C)cc1OCc1nccn1C`, with 830 nM.
As for `O=S(=O)(c1ccc(OCc2ccc(Cl)cc2)cc1)c1cc2c(cc1O)CCN(C1CCC1)CC2`, the IC50 is 940 nM.
The value for `CCCCNCc1ccc(-c2nc(CN(CCCn3ccnc3)C(=O)Nc3ccc(CC)cc3)cs2)cc1` was 830 nM; that for `O=C(NC1CCC(CN2CCC(c3c[nH]c4ccccc34)CC2)CC1)c1cc(-c2cccc(Cl)c2)n(-c2ccc(Cl)cc2Cl)n1` (stereo unspecified) was 1080 nM; that for `CN1CCC(Oc2ccc(CN3CC[C@H](NC(=O)c4ccc(F)c(F)c4)C3)c3ccccc23)C1` (stereo partly specified) was 1080 nM.
Take `COc1cccc(OC)c1C(=O)Nc1cccc(-c2nn3ccccc3c2-c2ccnc(Nc3cccc(F)c3)n2)c1`: the IC50 was determined as 750 nM.
Then `Cc1cc(=O)c(-c2ccc(OCc3ccc(OC(F)(F)F)cc3)cc2)c(C)[nH]1`, with 740 nM; and `CCN1CCN(CC(O)CNC(=O)Nc2ccc(Cl)cc2)CC1` (stereo unspecified), with 150 nM.
Then `Nc1ccc(-c2csc(Nc3ccncc3)n2)cc1`, with 940 nM.
Then `N#Cc1ccc(N2CCN(Cc3cccc(-c4ccc(-c5nc6ccccc6[nH]5)cc4)c3)CC2)nc1`, with 1240 nM.
In the case of `CCNc1cc(C(=O)N[C@@H](Cc2ccccc2)[C@H](O)CNC(C)(C)Cc2cccc(Cl)c2)cc(N2CCCCS2(=O)=O)c1`, the IC50 turned out to be 890 nM.
The value for `Oc1cccc(C2CCCN(CCc3c[nH]c4ccccc34)C2)c1` (stereo unspecified) was 860 nM.
Then `O=S(=O)(NCCN1CCCC1)c1ccc(-c2ccc(CNC3Cc4ccccc4C3)cc2)cc1F`, with 1000 nM; and `CCCCCCCc1c(C)[nH]c2cccc(OC)c2c1=O`, with 1130 nM.
The value for `COc1ccc(-c2cc(C(F)(F)F)n3ncc(C(=O)Nc4cc(C)ccc4O)c3n2)cc1OC` was 130 nM.
For the molecule `Cc1ccc(NC(=O)Nc2ccc(Cl)c(C(F)(F)F)c2)cc1-c1ccc(C(=O)Nc2ccncc2)cc1`, the IC50 worked out at 260 nM. Against the preceding molecule, the IC50 is about 2-fold higher.
Then `COc1ccc(C(=O)[C@H]2C[C@@H]2CN(C)CC(O)c2cc(C)c(OC)cc2C)cc1` (stereo partly specified), with 970 nM.
For `CCOc1cc(C(=O)N[C@@H](Cc2ccccc2)[C@H](O)CNCc2cc(OC)cc(OC)c2)cc(N2CCCCS2(=O)=O)c1`, the IC50 worked out at 520 nM.
The molecule `CCNc1cc(C(=O)N[C@@H](Cc2ccccc2)[C@H](O)CNCCc2cccc(C(F)(F)F)c2)cc(N2CCCC2=O)c1` yielded an IC50 of 880 nM.
The value for `O=C(NCCN1CCCC1)c1cccc(-c2ccc(-c3nc4ccc(F)cc4[nH]3)cc2)c1` was 720 nM.
Then `Fc1cccc(COc2ccc(Nc3ncnc4sc(C#C[C@H]5CCCN5)cc34)cc2F)c1`, with 870 nM.
In turn, `NC1=NC(c2ccccc2)(c2ccccc2)C(=O)N1CCOc1ccccc1` gave an IC50 of 840 nM.
Then `CCn1c2ccccc2c2cc(Cc3cnc(N)nc3N)ccc21`, with 220 nM; and `c1ccc(-c2cc(NCCCn3ccnc3)nc(-c3cccnc3)n2)cc1`, with 980 nM; and `CCOc1cc(C=NNc2nc(C)cc(-n3nc(C)cc3C)n2)ccc1O`, with 1080 nM.
The value for `O=S(=O)(NCCN1CCCC1)c1ccc(-c2ccccc2CNC2Cc3ccccc3C2)cc1` was 850 nM; that for `O=C(/C=C/c1ccc(Cl)c(Cl)c1)NCCCCCN1CCC(NC(=O)Nc2cccc(F)c2)CC1` was 770 nM.
The value for `Cc1[nH]c(C)c(-c2ccc(Oc3cccc(Cl)c3)cc2)c(=O)c1Cl` was 20 nM; that for `Cc1cc2nc(-c3ccc(C(=O)NC4CCN(Cc5ccccc5)CC4)s3)[nH]c2cc1C` was 770 nM; that for `CC(C)C[C@@H](/C=N/N1CCNC1=O)NC(=O)[C@H](CC(C)C)NC(=O)c1ccc(OCCN2CCOCC2)cc1` was 190 nM.
The molecule `C(=NNc1nc2ccccc2[nH]1)c1ccccc1OCc1ccccc1` yielded a concentration for half-maximal inhibition (IC50) of 260 nM. The IC50 values of the last two molecules are within 1.5-fold of each other.
Then `NC(=O)c1cccc(-n2ccc3cc(CNC4Cc5ccccc5C4)ccc32)c1`, with 1130 nM.
